Data set [1] in a line: Antiproliferative activity against multidrug resistant human COLO320 cells incubated for 72 hrs by MTT assay. Type of data set: functional. The conditions noted are these: COLO 320, 72 h.
Data set [2] is described as follows: Antiproliferative activity against chemosensitive human COLO205 cells incubated for 72 hrs by MTT assay. Type of data set: functional, cell-based. The conditions noted are these: COLO 205, 72 h. In general terms: Formazan colour is commonly taken as a measure of viable cells.
The target in data set [3] is T1, ATP-dependent translocase ABCB1 (Homo sapiens, UniProt P08183). Briefly: Inhibition of ABCB1 in multidrug resistant human COLO320 cells assessed as fluorescence activity ratio at 20 uM incubated for 10 mins by flow cytometry based rhodamine-123 accumulation assay (reference value: 0.62). (In general: A flow cytometer gives signals particle by particle.)
T1 sequence (P08183 whole entry): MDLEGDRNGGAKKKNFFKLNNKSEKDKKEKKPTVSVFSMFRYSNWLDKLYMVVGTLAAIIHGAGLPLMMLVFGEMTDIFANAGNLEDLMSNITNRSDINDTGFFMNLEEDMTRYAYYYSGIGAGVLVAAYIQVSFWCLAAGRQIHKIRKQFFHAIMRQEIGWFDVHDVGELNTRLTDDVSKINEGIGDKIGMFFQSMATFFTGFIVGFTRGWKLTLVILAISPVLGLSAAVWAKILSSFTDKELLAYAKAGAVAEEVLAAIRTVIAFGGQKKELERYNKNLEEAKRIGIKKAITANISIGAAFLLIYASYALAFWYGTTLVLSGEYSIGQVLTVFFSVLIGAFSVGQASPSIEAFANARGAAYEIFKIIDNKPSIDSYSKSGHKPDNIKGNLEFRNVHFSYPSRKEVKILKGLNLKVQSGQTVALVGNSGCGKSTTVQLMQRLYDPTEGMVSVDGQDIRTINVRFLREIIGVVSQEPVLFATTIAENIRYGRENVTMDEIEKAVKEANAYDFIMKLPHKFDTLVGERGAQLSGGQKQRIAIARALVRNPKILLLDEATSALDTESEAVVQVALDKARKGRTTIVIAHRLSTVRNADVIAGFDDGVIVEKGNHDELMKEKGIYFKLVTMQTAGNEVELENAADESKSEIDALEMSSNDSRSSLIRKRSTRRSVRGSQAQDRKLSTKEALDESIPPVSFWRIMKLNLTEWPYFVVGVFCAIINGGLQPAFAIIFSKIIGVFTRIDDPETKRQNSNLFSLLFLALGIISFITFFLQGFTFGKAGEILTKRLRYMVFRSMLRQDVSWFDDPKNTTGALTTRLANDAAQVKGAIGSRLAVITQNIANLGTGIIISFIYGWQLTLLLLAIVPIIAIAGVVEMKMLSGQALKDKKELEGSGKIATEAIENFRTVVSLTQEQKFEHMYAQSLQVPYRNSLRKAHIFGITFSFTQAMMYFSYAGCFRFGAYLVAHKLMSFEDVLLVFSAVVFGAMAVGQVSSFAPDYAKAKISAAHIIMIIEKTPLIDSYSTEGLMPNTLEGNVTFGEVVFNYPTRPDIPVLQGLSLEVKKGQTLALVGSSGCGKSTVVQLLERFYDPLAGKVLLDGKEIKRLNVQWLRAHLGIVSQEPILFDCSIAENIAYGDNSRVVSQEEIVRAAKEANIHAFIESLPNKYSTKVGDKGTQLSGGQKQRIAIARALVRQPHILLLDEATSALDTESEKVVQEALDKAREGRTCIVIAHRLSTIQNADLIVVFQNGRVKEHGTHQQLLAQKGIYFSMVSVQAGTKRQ
The target of data set [4] is T1, ATP-dependent translocase ABCB1. Briefly: Inhibition of human ABCB1 expressed in mouse L5178Y cells assessed as fluorescence activity ratio at 20 uM incubated for 10 mins by flow cytometry based rhodamine-123 accumulation assay (reference value: 0.78). Type of data set: cell-based.
Data set [5] has the same target. The data set can be described thus: Inhibition of human ABCB1 expressed in mouse L5178Y cells assessed as fluorescence activity ratio at 2 uM incubated for 10 mins by flow cytometry based rhodamine-123 accumulation assay (reference value: 0.78). It is filed as cell-based.
Data set [6] has the same target. The data set can be described thus: Inhibition of ABCB1 in multidrug resistant human COLO320 cells assessed as fluorescence activity ratio at 2 uM incubated for 10 mins by flow cytometry based rhodamine-123 accumulation assay (reference value: 0.62).
In a further data set the test system is COLO 205. Briefly: Cytotoxicity against chemosensitive human COLO205 cells incubated for 24 hrs by MTT assay. It is filed as functional, cell-based. The conditions noted are these: COLO 205, 24 h.
Data set [7] relates to L5178Y. Briefly: Cytotoxicity against human ABCB1 expressing mouse L5178Y cells incubated for 24 hrs by MTT assay. Type of data set: functional, cell-based.
Data set [8] concerns L5178Y. Briefly: Cytotoxicity against chemosensitive wild type parental mouse L5178Y cells incubated for 24 hrs by MTT assay. It is filed as functional, cell-based.
The test system of data set [9] is L5178Y. Briefly: Antiproliferative activity against human ABCB1 expressing mouse L5178Y cells incubated for 72 hrs by MTT assay. Type of data set: functional, cell-based.
Data set [10] has as its system L5178Y. Briefly: Antiproliferative activity against chemosensitive wild type parental mouse L5178Y cells incubated for 72 hrs by MTT assay. It is filed as functional, cell-based.
The nature of data set [11]: Cytotoxicity against multidrug resistant human COLO320 cells incubated for 24 hrs by MTT assay. It is filed as functional, cell-based. The conditions noted are these: COLO 320, 24 h.

The term IC50 denotes the point on the concentration scale where inhibition reaches its midpoint.

Molecules are shown by their SMILES.

On to `C/C1=C\[C@@H]2[C@H](CC[C@]3(CO3)[C@H](O)[C@H]3[C@@H](O)[C@@H](C)C[C@]3(O)C1=O)C2(C)C`, for which the IC50 (in data set [1]; in [2]; in the data set with COLO 205; in the data set on L5178Y [7]; in the data set with L5178Y [8]; in the data set on L5178Y [9]) was > 100 µM in each case. Moreover, the IC50 (with L5178Y [10]; in [11]) was > 100 µM each time. Also, the Ratio came out at 1.05 in [3], 1.49 in data set [4], 1.15 in data set [5] and 1.02 in [6].
For the molecule `C/C1=C\[C@@H]2[C@H](CC[C@]3(CO3)[C@H](OC(=O)N3CCOCC3)[C@H]3[C@@H](OC(=O)N4CCOCC4)[C@@H](C)C[C@]3(O)C1=O)C2(C)C`, the concentration for half-maximal inhibition (IC50) (in data set [1]; in data set [2]; in the data set on COLO 205; in the data set with L5178Y [7]; with L5178Y [8]; in the data set with L5178Y [9]) was > 100 µM throughout. The IC50 (in the data set with L5178Y [10]; in data set [11]) was > 100 µM in each case. Besides, the Ratio in data set [3] was found to be 1.42; in [4], 1.38; in data set [5] it was 1.22; in [6] it was 1.09.
With `CO[C@H]1[C@@H]2[C@H](CC[C@]3(CO)O[C@@H]3[C@H]3[C@@H](O)[C@@H](C)C[C@]3(O)C(=O)[C@@H]1C)C2(C)C`, the IC50 (in data set [1]; in data set [2]; with COLO 205; in the data set with L5178Y [7]; with L5178Y [8]; in the data set with L5178Y [9]) was > 100 µM in each case. The IC50 (with L5178Y [10]; in [11]) was > 100 µM in each case. In addition, the Ratio in [3] is 2.26; in data set [4] it was 18.3; in data set [5], 1.22; in [6] it was 1.1.
Consider `C/C1=C\[C@@H]2[C@H](CC[C@@](C)(O)[C@H](O)[C@H]3[C@@H](O)[C@@H](C)C[C@]3(O)[C@@H]1O)C2(C)C`, for which the IC50 (in data set [1]; in data set [2]; in the data set with COLO 205; in the data set with L5178Y [7]; in the data set with L5178Y [8]; in the data set on L5178Y [9]) was > 100 µM each time. Further, the IC50 (with L5178Y [10]; in data set [11]) was > 100 µM each time. Also, the Ratio in [3] turned out to be 3.81; in [4] it was 11.61; in data set [5], 0.51; in data set [6], 1.02.
With `C/C1=C\[C@@H]2[C@H](CC[C@@](C)(O)[C@H](O)[C@H]3[C@@H](O)[C@@H](C)C[C@]3(O)[C@H]1O)C2(C)C`, the IC50 (in [1]; in [2]; in the data set with COLO 205; in the data set on L5178Y [7]; with L5178Y [8]; in the data set on L5178Y [9]) was > 100 µM throughout. Besides, the IC50 (in the data set on L5178Y [10]; in [11]) was > 100 µM throughout. The Ratio in [3] is 1.11; in [4] it was 0.59; in data set [5], 0.54; in [6] it was 1.
For the molecule `CCO[C@@H]1[C@@H]2C(=O)C(O)(C[C@H](C)[C@@H]2O)/C(C)=C\[C@@H]2[C@H](CC[C@@]1(O)CO)C2(C)C`, the concentration for half-maximal inhibition (IC50) (in data set [1]; in data set [2]; in the data set on COLO 205; in the data set on L5178Y [7]; in the data set with L5178Y [8]; in the data set on L5178Y [9]) was > 100 µM throughout. Moreover, the IC50 (in the data set with L5178Y [10]; in data set [11]) was > 100 µM throughout. Further, the Ratio came out at 3.18 in data set [3], 38.92 in data set [4], 5.85 in data set [5] and 1.5 in data set [6].
As to `COc1ccc(CCN(C)CCCC(C#N)(c2ccc(OC)c(OC)c2)C(C)C)cc1OC` (stereo not drawn), the Ratio in data set [3] amounted to 8.95.

Source of the values: ChEMBL document CHEMBL3608294, “Epoxylathyrol Derivatives: Modulation of ABCB1-Mediated Multidrug Resistance in Human Colon Adenocarcinoma and Mouse T-Lymphoma Cells” (J Nat Prod, 2015).
